Read-outs that look alike come from different tables or passages of the source.
Assays:
recombinant human GALK1 = recombinant human GALK1 (Homo sapiens, UniProt P51570); assay: hGALK1 biochemical activity assay (Kinase-Glo Plus, ATP depletion)
Outline: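 Turnover is measured as ATP depletion by Kinase-Glo Plus luminescence after a 1 h room-temperature reaction. Compounds span 11 concentrations, 57.4 μM–0.97 nM, in final 20 mM HEPES pH 8.0 with 5 mM MgCl2. The substrate solution held 35 μM ATP; the added solution held 5 nM human or mouse GALK1 and 100 μM galactose.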

recombinant mouse GALK1 = recombinant mouse GALK1 (Mus musculus, UniProt Q9R0N0); assay: mGALK1 biochemical activity assay (Kinase-Glo Plus, ATP depletion)
recombinant mouse GALK1, sequence (Q9R0N0 whole entry): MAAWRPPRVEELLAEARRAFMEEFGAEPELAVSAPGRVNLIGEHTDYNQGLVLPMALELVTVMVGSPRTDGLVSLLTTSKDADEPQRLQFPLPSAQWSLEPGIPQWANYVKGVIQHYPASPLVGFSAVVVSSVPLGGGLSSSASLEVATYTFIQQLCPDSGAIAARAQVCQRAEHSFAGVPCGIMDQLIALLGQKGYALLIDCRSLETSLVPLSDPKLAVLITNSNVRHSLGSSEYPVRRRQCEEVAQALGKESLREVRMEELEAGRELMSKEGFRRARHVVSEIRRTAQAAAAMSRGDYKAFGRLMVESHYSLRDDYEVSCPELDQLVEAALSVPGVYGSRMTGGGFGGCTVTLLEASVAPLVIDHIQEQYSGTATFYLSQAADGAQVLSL
Outline: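 Recombinant GALK1 (5 nM) with 100 μM galactose; GALK1 turnover read as ATP depletion by Kinase-Glo Plus luminescence. Reaction ran 1 h at room temperature before detection reagent was added.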

hGALK1m = biological target: T1, hGALK1m (Homo sapiens, UniProt P51570, E253A/K252A); assay: in vitro hGALK1 activity assay of the structure-based optimisation (Example 12, Tables 17-20); format: biochemical; conditions: for Emax: Tables 18-19, read-out: Max Response (%); for fold decrease of potency versus parent compound: loss of potency relative to the unsubstituted parent
T1 construct: made in house; host or cells: E. coli HMS174
T1 sequence (P51570 whole entry K252A/E253A): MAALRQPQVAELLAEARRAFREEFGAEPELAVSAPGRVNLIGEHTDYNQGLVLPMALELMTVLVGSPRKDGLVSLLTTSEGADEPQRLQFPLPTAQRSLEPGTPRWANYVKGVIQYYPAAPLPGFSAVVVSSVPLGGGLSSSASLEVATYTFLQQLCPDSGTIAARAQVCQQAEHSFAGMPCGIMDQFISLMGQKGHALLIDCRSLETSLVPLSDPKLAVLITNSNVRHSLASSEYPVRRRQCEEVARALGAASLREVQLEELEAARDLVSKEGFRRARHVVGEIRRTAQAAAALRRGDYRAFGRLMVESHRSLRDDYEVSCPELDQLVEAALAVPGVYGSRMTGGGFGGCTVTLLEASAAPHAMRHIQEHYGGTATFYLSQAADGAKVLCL
Protocol: In vitro hGALK1 activity assays were performed as previously described. Liu et al., Bioorg. Med. Chem. Lett. 25(3): 721-727 (2015), which is incorporated by reference herein for the specific teachings thereof. The biochemical assay was performed by coupling the activity of recombinant human or mouse GALK1 to the Kinase-Glo Plus luminescent ATP detection kit, using ATP depletion as a measure of GALK1 turnover. Specifically, three μL/well of ATP substrate solution (35 μM ATP) in assay buffer (20 mM HEPES pH 8.0, 5 mM MgCl2, 60 mM NaCl, 1 mM DTT, 0.01% BSA final concentration) was dispensed into 1536-well assay plates (Greiner, white solid-bottom medium-binding plates). Aliquots of compound (23 nL solubilized in DMSO) were transferred to the assay plates using a Kalypsys 1536-well pintool such that 11 concentrations with 1/3 dilutions ranging from 57.4 μM-0.97 nM are tested. One μL/well of GALK-galactose solution (5 nM GALK1, 100 μM galactose) in assay buffer was then added, yielding a final reaction volume of 4 μL/well. Following a 1-hour room temperature incubation, 4 μL of Kinase-Glo Plus detection reagent was added to provide an ATP-dependent luminescent readout (final assay volume: 8 μL/well). Luminescence was detected using a ViewLux plate reader (PerkinElmer) after a 10-minute incubation, using a 1 second exposure time and 2× binning.
The in vitro hGALK1 activity assay was performed as previously described. Liu et al., Bioorg. Med. Chem. Lett. 25(3): 721-727 (2015). For the measurement of cellular Gal-1P reduction, compounds at different concentrations were added to cultured patient fibroblast at 80% confluency. After incubating the compounds for 16 hours, 10 mM galactose was added to the culture. After another 4 hours, cells were washed with cold PBS buffer 3× and harvested for gal-1P measurement, according to the previously published method. Liu et al., Bioorg. Med. Chem. Lett. 25(3): 721-727 (2015).

PAMPA permeability = conditions: for Papp: PAMPA, ADME P: PAMPA permeability (class), Tables 17-19, class probably colour-coded, colour lost
[1] = aqueous kinetic solubility
[2] = rat microsomal stability (RLM); conditions: for Metab. Stabil. (m): microsomal half-life; for half-life: rat, rat liver microsomes
[3] = Tables 2-15, 35 μM ATP, 100 μM galactose, 1 h, bracketed figure after some values (e.g. −1.2) is undefined and not reported, read-out: hGALK IC50
[4] = Tables 2-15, 35 μM ATP, 100 μM galactose, 1 h, bracketed figure after some values is undefined and not reported, read-out: mGALK IC50
[5] = recombinant mouse GALK1, Kinase-Glo Plus ATP depletion, read-out: mGALK
[6] = Tables 18-19 and text of Example 12
[7] = recombinant human GALK1, Kinase-Glo Plus ATP depletion, read-out: hGALK
[8] = Tables 2-15, 35 μM ATP, 100 μM galactose, 1 h, bracketed figure after some values is undefined and not reported
[9] = recombinant mouse GALK1, Kinase-Glo Plus ATP depletion

recombinant human GALK1, sequence (P51570 whole entry): as the sequence (P51570 whole entry K252A/E253A) above, with A252K, A253E counted along it

Row | Structure (SMILES) | IC50 (recombinant human GALK1; [3]) [µM] | IC50 (recombinant mouse GALK1; [4]) [µM] | IC50 (recombinant mouse GALK1; [5]) [µM] | Emax (hGALK1m) [%] | IC50 (hGALK1m; [6]) [µM] | Perm. (1 × 10^−6 cm/sec) (PAMPA permeability) | Papp (PAMPA permeability) [×10⁻⁶ cm/s] | Sol. [1] [µg/mL] | Metab. Stabil. (m) [2] [m] | half-life [2] [min] | IC50 (recombinant human GALK1; [7]) [µM] | fold decrease of potency versus parent compound (hGALK1m) | IC50 (hGALK1m; Tables 18-20 and text of Example 12) [µM] | fold improvement of potency (IC50) versus parent compound (hGALK1m; increase in potency relative to the unsubstituted parent) [fold] | change of potency versus parent compound (in words) (hGALK1m) | hGALK IC50 (recombinant human GALK1; Tables 2-15, 35 μM ATP, 100 μM galactose, 1 h, bracketed figure after some values (e.g. −1.2) is undefined and not reported) | hGALK (μM) (recombinant human GALK1; recombinant human GALK1, Kinase-Glo Plus ATP depletion) | mGALK IC50 (recombinant mouse GALK1; [8]) | mGALK (μM) (recombinant mouse GALK1; [9])
1 | CC1=C(C(=O)Nc2cc(C(=O)O)ccn2)C(c2ccccc2Cl)N=C(Nc2nc3c(Cl)cccc3o2)N1 (stereo not shown) [Compound 11, 2-(2-((4-chlorobenzo[d]oxazol-2-yl)amino)-4-(2-chlorophenyl)-6-methyl-1,4-dihydropyrimidine-5-carboxamido)isonicotinic acid] | 5.44 | 13.7 | 13.7 | 85 | 5.8 | <1.3 1 × 10^−6 cm/sec | < 10 | <1 | >30 | < 10 |  |  |  |  |  |  |  |  | 
2 | CC1=C(C(=O)Nc2cc(C(=O)O)ccn2)C(c2ccccc2Cl)N=C(Nc2nc3cc(N)ccc3o2)N1 (stereo not shown) [Compound 12, 2-(2-((5-aminobenzo[d]oxazol-2-yl)amino)-4-(2-chlorophenyl)-6-methyl-1,4-dihydropyrimidine-5-carboxamido)isonicotinic acid] | 7.69 | 21.7 | 21.7 | 100 | 5.5 |  | < 10 | >76 | >30 | < 10 |  |  |  |  |  |  |  |  | 
3 | CC1=C(C(=O)Nc2cc(C(=O)O)ccn2)C(c2ccccc2Cl)N=C(Nc2nc3ccc(Cl)cc3o2)N1 (stereo not shown) [Compound 14, 2-(2-((6-chlorobenzo[d]oxazol-2-yl)amino)-4-(2-chlorophenyl)-6-methyl-1,4-dihydropyrimidine-5-carboxamido)isonicotinic acid] |  | 6.11 | 6.11 | 100 | 2.25 |  | < 10 | 6.3 | >30 | < 10 | 1.93 | more than 2 fold |  |  |  |  |  |  | 
4 | CC1=C(C(=O)Nc2cc(C(=O)O)ccn2)C(c2ccccc2Cl)N=C(Nc2nc3cccc(C)c3o2)N1 (stereo not shown) [Compound 15, 2-(4-(2-chlorophenyl)-6-methyl-2-((7-methylbenzo[d]oxazol-2-yl)amino)-1,4-dihydropyrimidine-5-carboxamido)isonicotinic acid] | 0.97 | 6.85 | 6.85 | 100 |  |  | < 10 | >76 | >30 | < 10 |  |  | 0.365 | 2.6 |  |  |  |  | 
5 | CC1=C(C(=O)Nc2cc(C(=O)O)ccn2)C(c2ccccc2Cl)N=C(Nc2nc3cccc(C(F)(F)F)c3o2)N1 (stereo not shown) [Compound 16, 2-(4-(2-chlorophenyl)-6-methyl-2-((7-(trifluoromethyl)benzo[d]oxazol-2-yl)amino)-1,4-dihydropyrimidine-5-carboxamido)isonicotinic acid] |  | 48.5 | 48.6 | 100 | > 15 | <1 1 × 10^−6 cm/sec | < 10 | 61.135 | >30 | < 10 | 21.7 |  |  |  | greatly compromised the potencies |  |  |  | 
6 | CC1=C(C(=O)Nc2cc(C(=O)O)ccn2)C(c2ccccc2Cl)N=C(Nc2nc3cccc(Cl)c3o2)N1 (stereo not shown) [Compound 17, 2-(2-((7-chlorobenzo[d]oxazol-2-yl)amino)-4-(2-chlorophenyl)-6-methyl-1,4-dihydropyrimidine-5-carboxamido)isonicotinic acid] | 1.93 | 9.68 | 9.68 | 100 | 1 | <1 1 × 10^−6 cm/sec | < 10 | 57.5 | >30 | < 10 |  |  |  |  | did not change the potency |  |  |  | 
7 | CC1=C(C(=O)Nc2cc(C(=O)O)ccn2)C(c2ccccc2Cl)N=C(Nc2nc3c(C)cccc3o2)N1 (stereo not shown) [Compound 18, 2-(4-(2-chlorophenyl)-6-methyl-2-((4-methylbenzo[d]oxazol-2-yl)amino)-1,4-dihydropyrimidine-5-carboxamido)isonicotinic acid] |  | 17.2 | 17.2 | 100 | 5.5 | <1.3 1 × 10^−6 cm/sec | < 10 | 3.5 | >30 | < 10 | 9.68 |  |  |  |  |  |  |  | 
8 | CC1=C(C(=O)Nc2cc(C(=O)O)ccn2)C(c2ccccc2Cl)N=C(Nc2nc3cccc(OC(F)(F)F)c3o2)N1 (stereo not shown) [Compound 21, 2-(4-(2-chlorophenyl)-6-methyl-2-((7-(trifluoromethoxy)benzo[d]oxazol-2-yl)amino)-1,4-dihydropyrimidine-5-carboxamido)isonicotinic acid] |  |  |  | 88 | > 15 |  | < 10 | 47.8 | >30 | < 10 |  |  |  |  | greatly compromised the potencies | inactive | in- active | inactive | in- active
9 | COc1cccc2nc(NC3=NC(c4ccccc4Cl)C(C(=O)Nc4cc(C(=O)O)ccn4)=C(C)N3)oc12 (stereo not shown) [Compound 22, 2-(4-(2-chlorophenyl)-2-((7-methoxybenzo[d]oxazol-2-yl)amino)-6-methyl-1,4-dihydropyrimidine-5-carboxamido)isonicotinic acid] |  |  |  | 80 | > 15 | <1 1 × 10^−6 cm/sec | < 10 | 65.7 | >30 | < 10 | 21.7 | 3.6 fold |  |  | greatly compromised the potencies |  |  | inactive | in- active

Reference: patent US20230158025A1 (UNIVERSITY OF UTAH RESEARCH FOUNDATION, priority 2020, published 2023)
